Data as given in US6870028B1 (priority 1995, dated 2005).
≈ marks a conversion by molar mass, not a printed value. Where two headings read alike, the source gives them in different places.

Tests used:
[1] = tested on: human glioblastoma/astrocytoma U373; assay: in vitro cytotoxicity versus human glioblastoma/astrocytoma U373; type: cell-based; conditions: for IC50: U373 MG
Protocol: (§1) Coupling of the peptide A-B to amino acid moiety of C (5) was carried out in a similar way. [drawing 25] [drawing 26] [drawing 27] Testing of Compounds • 1. The cytotoxicity of compounds described herein have been tested as described in J. Immunol. Methods, 65, 55-63, 1983 and the results are provided in Table 4 below, wherein P388 refers to in vitro test versus murine leukaemia P388, U373 refers to in vitro human glioblastoma/astrocytoma U373, HEY refers to in vitro human ovarian carcinoma HEY, MCF7 refers to in vitro human breast cancer MCF7. • 2.

human breast cancer MCF7 = assay: in vitro cytotoxicity versus human breast cancer MCF7; type: cell-based
Protocol: as §1

[2] = tested on: human ovarian carcinoma HEY; assay: in vitro cytotoxicity versus human ovarian carcinoma HEY; type: cell-based
Protocol: as §1

murine leukaemia P388 = assay: in vitro cytotoxicity versus murine leukaemia P388; type: cell-based; conditions: Mus musculus
Protocol: as §1

[3] = tested on: human mammary carcinoma MCF7 cells; assay: antimitotic activity, percentage of mitotic cells in chromosome spreads; type: cell-based; conditions: for IC50: Homo sapiens; for IC50 / antimitotic activity, in words: 20 h treatment
Protocol: • 3. Compounds described herein were comparatively tested for their antimitotic activity against human mammary carcinoma MCF7 cells.
MCF7 cells were grown as a monolayer in RPMI supplemented with 15% fetal calf serum and antibiotics at 37° C. in humidified 10% CO2. All compounds were dissolved in dimethyl sulfoxide except for vinblastine (a known drug) which was a 1 mg/ml solution in physiological saline. Exponentially growing MCF7 cells were treated with different drug concentrations for 20 h, prepared for chromosome spreads, and the percentage of mitotic cells determined by fluorescence microscopy. Hemiasterlin, Hemiasterlin A and modified compounds were very potent antimitotic agents, with IC50 values of 0.3 nM and 3 nM respectively.

MCF7 cells = assay: morphology of mitotic spindles by indirect immunofluorescence (β-tubulin antibody, bisbenzimide); type: cell-based, human
Description: The effect of Hemiasterlin and Hemiasterlin A on the morphology of their mitotic spindles was examined by indirect immunofluorescence using a monoclonal antibody to β-tubulin and the distribution of their chromosomes using the fluorescent DNA dye bisbenzimide.

P388 leukaemia cells = assay: in vivo P388 leukaemia model in mice
[4] = read-out: IC50 Values cell mitosis

Work on `CN[C@H](C(=O)N[C@H](C(=O)N(C)[C@H](/C=C(\C)C(=O)N[C@@H](CCCNC(=N)N)C(=O)O)C(C)C)C(C)(C)C)C(C)(C)c1c[nH]c2ccccc12` yielded an IC50 [1] of 270 ng/mL (≈ 404 nM), an IC50 (human breast cancer MCF7) of 6800 ng/mL (≈ 10200 nM) and an IC50 [2] of 190 ng/mL (≈ 284 nM). For the same compound, the IC50 (murine leukaemia P388) was 7.3 ng/mL (≈ 10.9 nM).
In the case of `CN[C@H](C(=O)N[C@H](C(=O)N(C)[C@H](/C=C(\C)C(=O)OC)C(C)C)C(C)(C)C)C(C)(C)c1cn(C)c2ccccc12`, the IC50 [3, 4] is reported as 0.216 ng/mL and the IC50 (human breast cancer MCF7) is reported as 5.4 ng/mL (≈ 9.99 nM).
`CN[C@H](C(=O)N[C@H](C(=O)N(C)[C@H](CC(C)C(=O)O)C(C)C)C(C)(C)C)C(C)(C)c1cn(C)c2ccccc12` (stereo partly shown) showed an IC50 [3, 4] of 1.06 ng/mL.
With `CCOC(=O)/C(C)=C/[C@H](C(C)C)N(C)C(=O)[C@@H](NC(=O)[C@@H](NC)C(C)(C)c1cn(C)c2ccccc12)C(C)C` the IC50 (human breast cancer MCF7) was 100 ng/mL (≈ 185 nM).
In the case of `C=C1C[C@H](C)C(=O)N[C@@H](C)C(=O)N(C)[C@H](Cc2ccc(O)c(I)c2)C(=O)N[C@@H](C)C(=O)O[C@@H](C)C[C@@H](C)C1=O` [Compound 1, Geodiamolide G], the “IC50 Values U373” value [1] is reported as 7700 ng/mL (≈ 11700 nM) and the “IC50 Values HEY” value [2] is reported as 8600 ng/mL (≈ 13100 nM).
With `CN[C@H](C(=O)N[C@H](C(=O)N(C)[C@H](/C=C(\C)C(=O)O)C(C)C)C(C)(C)C)C(C)(C)c1c[nH]c2ccccc12` [Compound 2, Hemiasterlin A] the “lowest concentration causing maximal mitotic arrest” value [3] was 10 nM, the “antimitotic activity, in words” value [3] was “more potent than Taxol, Vinblastine and Nocodazole” and the IC50 [3, 4] was 1.02 ng/mL. For the same compound, the IC50 ([3]; read-out: antimitotic IC50) was 3 nM, the IC50 [1] was 1.5 ng/mL (≈ 2.93 nM) and the mitotic spindle morphology (MCF7 cells; at 2 nM) was “no completely normal spindles were seen”. For the same compound, the effect on microtubules (MCF7 cells; at 10 nM) was “caused microtubule depolymerisation in mitotic cells”, the IC50 (human breast cancer MCF7) was 1.54 ng/mL (≈ 3 nM) and the IC50 [2] was 7.6 ng/mL (≈ 14.8 nM). For the same compound, the IC50 (murine leukaemia P388) was 0.00171 ng/mL (≈ 0.00334 nM).
In the case of `CN[C@H](C(=O)N[C@H](C(=O)N(C)[C@H](/C=C(\C)C(=O)O)C(C)C)C(C)C)C(C)(C)c1c[nH]c2ccccc12` [Compound 3, Hemiasterlin B], the IC50 [3, 4] is reported as 9.96 ng/mL, the IC50 (human breast cancer MCF7) is reported as 15 ng/mL (≈ 30.1 nM) and the IC50 [2] is reported as 16 ng/mL (≈ 32.1 nM). It also gave an IC50 (murine leukaemia P388) of 7 ng/mL (≈ 14 nM).
With `CN[C@H](C(=O)N[C@H](C(=O)N(C)[C@H](/C=C(\C)C(=O)O)C(C)C)C(C)(C)C)C(C)(C)c1cn(C)c2ccccc12` [Compound A, Hemiasterlin] the “antimitotic activity, in words” value [3] was “more potent than Taxol, Vinblastine and Nocodazole”, the IC50 [3, 4] was 0.158 ng/mL and the IC50 ([3]; read-out: antimitotic IC50) was 0.3 nM. The IC50 [1] was 12 ng/mL (≈ 22.8 nM), the IC50 (human breast cancer MCF7) was 0.158 ng/mL (≈ 0.3 nM) and the IC50 [2] was 1.4 ng/mL (≈ 2.66 nM). For the same compound, the “in vivo tests, result in words” value (P388 leukaemia cells; in vivo tests per NIH Publication No. 84-2635) was “cytotoxic”, the long term survivors (P388 leukaemia cells; mice injected with 1×10^6 P388 leukaemia cells, 5 daily doses of 0.45 μg) was “several long term survivors” and the “%TC” value (P388 leukaemia cells; mice injected with 1×10^6 P388 leukaemia cells, 5 daily doses of 0.45 μg begun 24 hours after implantation) was 223%. The IC50 (murine leukaemia P388) was 0.0457 ng/mL (≈ 0.0868 nM).
In the case of `COC(=O)Nc1nc2ccc(C(=O)c3cccs3)cc2[nH]1` [Nocodazole], the mitotic spindle morphology (MCF7 cells; half-maximal concentrations) is reported as “produced the same types of abnormal spindle as hemiasterlin A” and the effect on microtubules (MCF7 cells; high concentrations) is reported as “microtubule depolymerisation in mitotic cells”.
With `CC(=O)O[C@H]1C(=O)[C@@]2(C)[C@H]([C@H](OC(=O)c3ccccc3)[C@]3(O)C[C@H](OC(=O)[C@H](O)[C@@H](NC(=O)c4ccccc4)c4ccccc4)C(C)=C1C3(C)C)[C@]1(OC(C)=O)CO[C@@H]1C[C@@H]2O` [Taxol] the mitotic spindle morphology (MCF7 cells; half-maximal concentrations) was “produced the same types of abnormal spindle as hemiasterlin A” and the effect on microtubules (MCF7 cells; high concentrations) was “causing bundling of cytoplasmic microtubules in interphase cells and very dense multiple asters in mitotic cells”.
With `CC[C@]1(O)C[C@@H]2CN(CCc3c([nH]c4ccccc34)[C@@](C(=O)OC)(c3cc4c(cc3OC)N(C)[C@H]3[C@@](O)(C(=O)OC)[C@H](OC(C)=O)[C@]5(CC)C=CCN6CC[C@]43[C@@H]65)C2)C1` [Vinblastine] the mitotic spindle morphology (MCF7 cells; half-maximal concentrations) was “produced the same types of abnormal spindle as hemiasterlin A” and the effect on microtubules (MCF7 cells; high concentrations) was “microtubule depolymerisation in mitotic cells”.
